The values that follow come from patent publication US5627160A, “L-2',3'-dideoxy nucleoside analogs as anti-hepatitis B (HBV) and anti-HIV agents” (priority 1993, dated 1997).

Data set [1] has as its system Hepatitis B virus. The conditions noted are these: Chang et al., 1992; cited from earlier work.
Data set [2] concerns human immunodeficiency virus (HIV). The note with it: Larder et al., 1990, cited from earlier work.
Data set [3] has as its system HIV-1 (HTLV-IIIB Strain). Briefly: Anti-HIV drug susceptibility assay in MT-2 cells (MTT dye reduction). Format: cell-based. The conditions noted are these: for IC50: MT-2 cells; for Anti-HIV activity compared with ddC: in words. How it is done:
Drug susceptibility assay for determining the effectiveness of the compounds of the present invention against HIV in MT-2 cells is a modification of the assay described in Mellors, et al., Molecular Pharmacology, 41, 446 (1992). Drug-mediated inhibition of virus-induced cell toxicity was measured by the A595 of MTT ([3-I 4,5-dimethyl thiazol-2-yl]-2,3-diphenyltetrazolium bromide) (Sigma M-2128). Triplicate wells of a 96 well plate which contains 1×10^4 MT2 cells (AIDS-repository) were infected with HIV-1 (HTLV-IIIB Strain-R.C. Gallo) at a multiplicity of 0.01 TCID50 /cell. MT-2 cells in RPMI 1640 media supplemented with 10% dialysized fetal bovine and 100 ug/ml Kanamycin were infected with virus and immediately added to serial dilution of the drug. After 5 days, 20 ul of MTT dye (2.5 mg/ml in PBS) was added per well. At the end of a four hour incubation period 150 ul of acidified 2-propanol with NP-40 non-ionic detergent was added. After the crystals of dye dissolve (usually 1-2 days), the plates are read on a micro-plate reader. Using this MTT-dye reduction method (as set forth by Larder, et al., Antimicrobial Agents and Chemotherapy, 34, 436 (1990), the percentage of protection can be calculated using the formula [(a-b/c-b)×100] in which a=A595 of drug treated cells, b is […] and c is the A595 of the non-drug infected cells.
(In general: Tetrazolium dyes change colour on reduction, which living cells bring about.)

Data set [4] is described as follows: Cellular toxicity in T-lymphoblastoic cell line (CEM), cell numbers 3 days post treatment. Format: cell-based. The conditions noted are these: human; CEM cells, 3 days; read-out: Cytotoxicity CEM Cells ID50. How it is done: (§1) To determine the cellular toxicity of the present compounds, the T-lymphoblastoic cell line (CEM) was used. Cells were subjected to varying concentrations of the drug(s) and cell numbers were determined 3 days post treatment by the method described by Chen, C-H and Cheng, Y-C J. Biol. Chem., 264, 11934 (1989). Concentrations of the drug which would result in 50% killing of the cell populations were determined from the plot generated by representing cell numbers corresponding to the individual drug concentrations.

Data set [5] deals with HBV. The experiment in a line: Inhibition of HBV replication (secreted viral DNA, Southern analysis) in 2.2.15 cells. It is filed as cell-based, Hepatitis B virus (in human hepatoma cell line 2.2.15). The conditions noted are these: for IC50: Hepatitis B virus, 144 h, 2.2.15 cells, read-out: Anti-HBV ID50; for Activity against HBV, comparison / Inhibition of HBV DNA replication: in words. How it is done:
The biological activity of the present compounds was assessed as described by Doong, S-L, et al., Proc. Natl. Acad. Sci. U.S.A 88, 8495-8499 (1991). The human hepatoma cell line carrying the HBV (designated 2.2.15) kindly provided by Dr. G. Acs was used in the study. Price, et al., Proc. Natl. Acad. Sci. U.S.A. 86, 8541 (1989). Briefly, six day-old cultures were treated with varying concentrations of the drug in the culture medium (Minimum essential medium with Earl's salts and 10% fetal bovine serum). The drug was left in the culture medium for a period of 3 days after which period the medium was aspirated and fresh medium containing the same concentration(s) of the drug was added. At the end of the subsequent 3 day period the culture medium was harvested. The culture medium was processed for obtaining the virions by the polyethylene glycol precipitation method (Doong, et al., supra). Viral DNA thus recovered from the secreted particles was subjected to Southern analysis. Inhibition of the viral replication was determined by the comparison of the viral DNA from drug-treated versus control cultures not treated with the drug.

The conditions of data set [6]: in words; cited from earlier work.
In data set [7] the test system is CEM Cells. The experiment in a line: Cellular toxicity in T-lymphoblastoic cell line (CEM), cell numbers 3 days post treatment. The conditions noted are these: in words, β-L-ddC / β-L-FddC versus ddC. It is filed as cell-based. The protocol:
as §1

A short description of data set [8]: in vitro. The conditions noted are these: human, cem cells.
Description: (§2) The effects of the various drug concentrations on mitochondrial DNA (mt DNA) was evaluated by the method described by Chen and Cheng, supra. CEM cells treated with varying concentrations of the drug were collected by centrifugation. After washing the cells with phosphate buffered saline, cells were lysed by suspending the cells in 10 mM Tris-HCl (pH 7.0) and repeating freeze thaw cycles. The resulting cells were then subjected to RNase A treatment at a final enzyme concentration of 10 ug/ml, followed by proteinase K treatment (100 ug/ml) for 1 hour. The DNA thus obtained by this procedure was then immobilized on nylon membrane after the addition of 0.8 vol of NaI and boiling for 10 minutes. Hybridization of the resulting DNA to a mt DNA specific probe was performed by following the method of Doong, S-L, supra and autoradiography was also performed. Quantitative estimates were obtained by scanning densitometer. The blots were stripped of the mtDNA probe and rehybridized to human Alu sequence probe to determine the amounts of DNA for normalization and estimation of absolute amounts of the mt DNA.
Data set [9] deals with Hepatitis B viral infections. The conditions noted are these: chronic HBV infection; foscarnet in fulminant hepatitis; cited from earlier work.
Data set [10] deals with mitochondrial DNA (mt DNA).
Description: as §2
Setting [11] is: Human immunodeficiency virus 1, MT2, 120 h, HIV-1 HTLV-IIIB, Table 1, read-out: Anti-HIV ID50.
Where [12] appears, read: Human immunodeficiency virus 1, IIIB, MT2, 120 h, read-out: ID50 concentration required to inhibit viral replication (HIV).

“Also recorded” adds a separate entry of the source. Read-outs that look alike come from different tables or passages of the source.

Take `Nc1ccn([C@H]2CS[C@@H](CO)O2)c(=O)n1` (stereo in doubt) [(-)isomer, (-)-2',3'-Dideoxy-3'-thiacytidine]: in data set [1], the “Activity against Hepatitis B virus in culture” value (shortened to “Activity … in culture”) is on record as “potent activity” and the Toxicity result is listed as “relatively low toxicity”.

Regarding `[N-]=[N+]=N[C@H]1C[C@H](n2ccc(=O)[nH]c2=O)O[C@@H]1CO` [3'-azido-2',3'-dideoxyuridine], the “Activity against human immunodeficiency virus” value in data set [2] is given as “significant activity”.

For the molecule `Nc1nc(=O)n([C@H]2CC[C@H](CO)O2)cc1F` [alpha-L-FddC, 1(2,3-dideoxy-alpha-L-ribofuranosyl)-5-fluorocytosine], the IC50 in data set [3] (setting [11]) came out at 0.3 µM; in [5], 0.5 µM. Further, in [4], the CC50 at 72 h was more than 100 µM.

As to `Nc1ccn([C@H]2CC[C@@H](CO)O2)c(=O)n1` [ddC, 1-(2,3-dideoxy-beta-D-ribofuranosyl)cytosine, reference compound], the Dose limiting toxicity entry in data set [6] is “severe neuropathy”. Further, the results for the IC50 in data set [3] (setting [12]), in data set [5] and in data set [8] were 0.028 µM, 2.8 µM and 0.022 µM, respectively. Further, the “Anti-HIV activity compared with ddC” value in data set [3] was “less active against HIV”. Also, the “Cellular cytotoxicity, comparison with ddC” value (shortened to “Cellular cytotoxicity”) in data set [7] is listed as “much more cytotoxic; also recorded: more cytotoxic than β-L-FddC”. Moreover, the CC50 at 72 h in data set [4] came to 28 µM. Further, the “Activity against human immunodeficiency virus” value in data set [2] is on record as “among the most potent inhibitors of HIV”; in data set [2] (listed as DDC) it was “significant activity”.

As to `Nc1nc(=O)n([C@@H]2CS[C@H](CO)O2)cc1F` (relative stereo) [(±)5-FSddC], in data set [1], the “Activity … in culture” value is “potent activity”.

As for `Nc1ccn([C@@H]2CC[C@H](CO)O2)c(=O)n1` [β-L-ddC, 1-(2,3-dideoxy-beta-L-ribofuranosyl)cytosine], the IC50 in data set [3] (setting [11]) was determined as 0.35 µM. The “Cellular cytotoxicity” value in data set [7] is “considerably less”. In addition, the CC50 at 72 h in data set [4] is 70 µM. Further, in data set [5], the IC50 was 0.01 µM; the “Activity against HBV, comparison” value is “several fold higher activity against HBV”; the “Inhibition of HBV DNA replication” value was “efficiently inhibited”. In data set [8], this molecule yielded an IC50 of more than 100 µM.

With `O=C(O)P(=O)(O)O` [foscarnet], in [9], the “Success of therapy of hepatitis B” value is “little, if any, success”.

Take `Nc1ncnc2c1ncn2[C@@H]1O[C@H](COP(=O)(O)O)[C@@H](O)[C@@H]1O` [ara-AMP]: in [9], the “Success of therapy of hepatitis B” value is reported as “limited success”.

With `Cc1cn([C@H]2C=C[C@@H](CO)O2)c(=O)[nH]c1=O` [Compound D4T, 3'-deoxy-2',3'-didehydrothymidine], the “Activity against human immunodeficiency virus” value in data set [2] was “significant activity”.

As to `Nc1ncnc2c1ncn2[C@H]1C[C@H](F)[C@@H](CO)O1` [3'-fluoro-2',3'-dideoxyadenosine], the “Activity against human immunodeficiency virus” value in data set [2] is given as “significant activity”.

For the molecule `Nc1ccn([C@@H]2CC[C@H](CO)S2)c(=O)n1` [β-L-ddSC, 1-(2,3-dideoxy-4-thio-beta-L-ribofuranosyl)cytosine], the IC50 was 70 µM in data set [3] (setting [11]) and more than 0.5 µM in data set [5]. Further, the CC50 at 72 h in [4] was more than 100 µM.

For the molecule `OC[C@@H]1CC[C@H](n2cnc3c(O)ncnc32)O1` [DDI, 2',3'-dideoxyinosine], the “Activity against human immunodeficiency virus” value in data set [2] is given as “significant activity”.

`Nc1ccn([C@H]2C=C[C@@H](CO)O2)c(=O)n1` [Compound D4C, 2',3'-dideoxy-2',3'-didehydrocytidine]: in [2], the “Activity against human immunodeficiency virus” value is “significant activity”.

For the molecule `Nc1nc2c(ncn2COCCO)c(=O)[nH]1` [acyclovir], the “Success of therapy of hepatitis B” value in data set [9] is listed as “little, if any, success”.

On to `Nc1ccn([C@@H]2CS[C@H](CO)O2)c(=O)n1` (relative stereo) [(±) SddC, (+) and (-)-2',3'-Dideoxy-3'-thiacytidine], for which the “Activity … in culture” value in data set [1] was “potent inhibitors of Hepatitis B virus”.

For `Nc1nc(=O)n([C@@H]2CC[C@H](CO)O2)cc1F` [β-L-FddC, 1-(2,3-dideoxy-beta-L-ribofuranosyl)-5-fluorocytosine], in [3] (0.007 vs 0.028 micromolar), the “Difference of anti-HIV ID50, β-L-FddC versus ddC” value is 4 fold. In [3] (setting [12]), the IC50 amounted to 0.007 µM. In [3], the “Anti-HIV activity compared with ddC” value was “significantly more effective than ddC; also recorded: several fold higher activity against HIV”. The “Cellular cytotoxicity” value in [7] is on record as “considerably less”. Moreover, the CC50 at 72 h in data set [4] is 67 µM. Further, in data set [5], the IC50 stood at 0.01 µM; the “Activity against HBV, comparison” value was “several fold higher activity against HBV”; the “Inhibition of HBV DNA replication” value is given as “efficiently inhibited”. Besides, the IC50 in data set [8] was more than 100 µM. Further, in data set [10], the “Effect on host mitochondrial DNA” value was “relatively little effect” and the “Toxicity associated with dose limiting neuropathy” value was “virtually no toxicity associated with dose limiting neuropathy”.

In the case of `Nc1ncnc2c1ncn2[C@@H]1O[C@H](CO)[C@@H](O)[C@@H]1O` [adenine arabinoside], the “Success of therapy of hepatitis B” value in data set [9] is recorded as “limited success”.

Take interferon alpha: in [9], the “Success of therapy of hepatitis B” value is on record as “limited success”.

Consider `Cc1cn([C@H]2C[C@H](N=[N+]=[N-])[C@@H](CO)O2)c(=O)[nH]c1=O` [AZT, 3'-azido-3'deoxythymidine], for which, in data set [9], the “Success of therapy of hepatitis B” value is “little, if any, success”.

In the case of `Nc1nc2c(ncn2[C@H]2C=C[C@@H](CO)C2)c(=O)[nH]1` [Carbovir, carbocyclic analog of 2',3'-dideoxy-2',3'-didehydroguanosine], the “Activity against human immunodeficiency virus” value in data set [2] is “significant activity”.

In the case of `Nc1ccn([C@H]2CC[C@H](CO)S2)c(=O)n1` [alpha-L-ddSC, 1(2,3-dideoxy-4-thio-alpha-L-ribofuranosyl) cytosine], the figures for the IC50 in data set [3] (setting [11]) and in [5] were more than 100 µM and more than 0.5 µM, respectively. Further, the CC50 at 72 h in data set [4] is more than 100 µM.

As to `Cc1cn([C@H]2C[C@H](F)[C@@H](CO)O2)c(=O)[nH]c1=O` [3'-fluoro-3'-deoxythymidine], the “Activity against human immunodeficiency virus” value in data set [2] is “significant activity”.
